# According to patent publication US6605754B1, “DNA constructs and plants incorporating them” (priority 1992, dated 2003):
# Tests used:
# [1] = test system: alcA:35S chimeric promoter (CAT reporter gene expression); assay: CAT expression from wild type A nidulans alcA-CAT transformants GA2-1 and GA2-5; type: cell-based, Aspergillus nidulans
# Description: Conidial suspensions of A nidulans were grown in supplemented minimal medium containing 0.1% fructose as the carbon source, for 20 hours at 200 revs/min in an orbital incubator at 37° C. Inducing chemical was added to the mycelia at 20 hours and allowed to grow for a further 4 hours. The mycelia was harvested as before. Uninduced mycelia was allowed to grow for 24 hours in the medium described above.
# 300 mgs of mycelia, frozen in liquid nitrogen, was ground in a chilled pestle and mortar with an equal amount of acid washed sand for 20 seconds. 1 ml of extraction buffer, (0.1 M Tris pH 7.5), was added and the mycelia ground for a further 30 seconds. Another 1 ml of extraction buffer was added and the mycelia was ground again for 30 seconds. 1 ml of the ground mycelia mixture was transferred into eppendorfs and centrifuged at 13,000 revs/min for 5 minutes in a microcentrifuge. The supernatant was transferred to new eppendorfs and the protein concentration estimated using the Bradford's assay.
# Stably transformed A nidulans was obtained by co-transforming a pyrG89 strain with the pDJB3 and palcA-CAT/pUC plasmids using the PEG method. Plasmid palcA-CAT/pUC contains the CAT reporter gene between the alcA:35S chimeric promoter and the nos transcription terminator. Two independent transformants (GA2-1 and GA2-5) were obtained which contained uninterrupted copies of the alcA-CAT construct. This was shown by probing genomic DNA, restricted with HindIII, with the 0.7 kb SalI fragment of the CAT gene.
# The CAT activity of the alcA-CAT A nidulans transformants was measured when they were grown under a variety of conditions. FIG. 4 is a graph showing CAT expression from the GA2-1 and GA2-5 transformants (wild type with alcA-CAT construct) growing in 0.1% fructose (F) or 1% glucose (G) in the absence or presence of 50 mM ethyl methyl ketone as inducer (I). […] The induction of CAT was prevented when the transformants were grown in 1% glucose even in the presence of inducer indicating the carbon catabolyte repression function of the alcA promoter was retained.
# FIG. 5 is a graph showing the effect of cyclohexanone concentration (mM) on CAT expression in the transformant GA2-1 growing in 0.1% fructose (F) or 1% glucose (G).
# [2] = test system: alc expression cassette 35S-alcR/alcA-CAT (CAT reporter gene expression); assay: CAT activity in leaves of stably transformed tobacco after leaf paint with inducer; type: in vivo
# Description: Cyclohexanone was applied to the plant leaves as a paint. The cyclohexanone paint consisted of a 10% solution of 950 g/L cyclohexanone, 35 g/L syperonic NDE 1800, 16.5 g/L Tween 85 in thickener. Both surfaces of the leaf were applied with paint at 100 μl solution per 16-25 cm^2 of leaf surface, on days 0 and 2. Leaf tissue was harvested prior to inducer application and at appropriate times after the second application of paint. 1 cm^2 of leaf tissue was removed with a sterile scalpel, put in an eppendorf, and immersed in liquid nitrogen. CAT assays were undertaken within 4 hours of leaf sampling.
# The leaf tissue was allowed to defrost at room temperature for several minutes after storage in liquid nitrogen. A sterile micropestle was used to grind the leaf tissue in the eppendorf for 30 seconds and then 100 μl of 100 mM Tris pH 7.8 was added. The plant mixture was then vortexed for 20 seconds and centrifuged at 13,000 revs/min for 5 minutes. The supernatant was transferred to a new eppendorf. 50 μl of leaf extract was used for a CAT assay and the rest was used to determine the protein concentration wit the Bradford's method.
# CAT assays were undertaken according to the Dupont method as described in Example 4.
# The data obtained from this analysis are shown in FIG. 9: at each time point, results are given in the order S34:D3:T1. Leaves were treated with cyclohexanone leaf paint on day 0 and day 2. Samples of leaf tissue were taken immediately prior to each treatment (0-0 and 2-0 in FIG. 9) and thereafter at seven intervals up until day 3. Protein extracts were made from the leaf samples and CAT activity determined in the samples using the diffusion assay described above.
# The leaves of the plants were painted with a 10% iso-propanol solution at 0 and 60 minutes and the CAT expression of leaf samples was measured at 240 minutes. The CAT expression found in the alcA-CAT and alcA-CAT/35S-alcR transgenic plants at 0 minutes was low as it was in the control untransformed tobacco plants.
# [3] = test system: ADHI expressed from the alcA gene; conditions: Creaser et al 1984 / shown previously; cited from earlier work
Compound,"CAT activity of the alcA-CAT reporter construct ([1]; GA2-1 and GA2-5, 0.1% fructose, 50 mM inducer)","induction of CAT ([1]; GA2-1 and GA2-5, 1% glucose, 50 mM inducer)",concentration of optimal inducing ability (concentration curve) ([1]; GA2-1 transformant) [mM],induction of CAT expression ([1]; GA2-1 transformant),effect on CAT activity [2],"CAT expression level after application to leaves ([2]; plant D3 (35S-alcR/alcA-CAT), cyclohexanone leaf paint)","time of peak CAT activity after the second inducing treatment ([2]; plant D3, leaf paint on day 0 and day 2) [min]",CAT activity as % of the maximum activity seen in the 35S-alcR/alcA-CAT leaves ([2]; plants T1 and S34 after cyclohexanone leaf paint),inducer strength for alcA / ADHI [3],"increase in CAT activity ([2]; 10% solution painted at 0 and 60 minutes, measured at 240 minutes, alcA-CAT, alcA-CAT/35S-alcR and control plants)",effect on the alc expression cassette ([2]; tobacco plants)
"CCC(C)=O [EMK, butan-2-one (ethyl methyl ketone)]",high,prevented,,,,,,,,,
O=C1CCCCC1 [cyclohexanone],,,25,found to induce CAT expression,no effect,high CAT expression level,160,5-20%,potent inducer,,
"CC(C)O [iso-propanol, propan-2-ol]",,,,,,,,,weak inducer,no significant increase,no apparent effect
